Test systems include NCI-H522 lung; SNB-19 CNS; SK-MEL-28 melanoma; A498 renal; CAKI-1 renal; MOLT-4 leukemia; M14 melanoma; SF-295 CNS; CCRF-CEM leukemia; SNB-75 CNS.
Holding throughout (test): DTP human tumour cell line panel, 48 h

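The compound was tested at five concentrations on cells cultured in 96-well plates, with a 48-hour exposure period. GI50 marks 50% less growth. TGI: concentration producing complete growth inhibition.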

As to `CCOC(=O)c1cnccc1CC1(C#N)c2ccccc2C=CN1C(=O)c1ccccc1` (stereo not given), the TGI (commonly the concentration at which net growth stops) is 54.8 µM with NCI-H522 lung; above 100 µM in the assay on SNB-19 CNS; above 100 µM in the assay with SK-MEL-28 melanoma; above 100 µM with A498 renal; above 100 µM in the assay on CAKI-1 renal; 50.8 µM with MOLT-4 leukemia. The TGI in the assay on M14 melanoma is 79.1 µM; in the assay on SF-295 CNS it was above 100 µM; in the assay on CCRF-CEM leukemia, above 100 µM; in the assay on SNB-75 CNS it was 52.9 µM.
Take `C=C1C(=O)O[C@H]2[C@H]3O[C@@H](C[C@@H]12)[C@](C)(O)CC[C@@H]1O[C@@]1(C)CCC[C@H]3C`: the TGI in the assay with NCI-H522 lung is 34.6 µM; in the assay on SNB-19 CNS, above 100 µM; in the assay on SK-MEL-28 melanoma, above 100 µM; in the assay with A498 renal, 73.2 µM; in the assay on CAKI-1 renal it was 27.6 µM; with MOLT-4 leukemia, above 100 µM. For the same molecule, the concentration for total growth inhibition (TGI) in the assay with M14 melanoma was 29.3 µM; in the assay with SF-295 CNS, above 100 µM; in the assay with CCRF-CEM leukemia it was 58.2 µM; in the assay on SNB-75 CNS, 96.1 µM.
For `COC(=O)[C@@H]1CN(C(=O)c2ccccc2)C(=O)N1C(=O)OCc1ccccc1`, the TGI with NCI-H522 lung, in the assay on SNB-19 CNS, with SK-MEL-28 melanoma, in the assay on A498 renal, in the assay on CAKI-1 renal and in the assay with MOLT-4 leukemia was above 100 µM each time. In addition, the TGI in the assay with M14 melanoma, in the assay on SF-295 CNS, in the assay with CCRF-CEM leukemia and in the assay with SNB-75 CNS was above 100 µM each time.
Regarding `CO[C@H]1C[C@H](O[C@H]2CC[C@]3(C=O)[C@H]4CC[C@]5(C)[C@@H](C6=CC(=O)OC6)CC[C@]5(O)[C@@H]4CC[C@]3(O)C2)O[C@H](C)[C@H]1O`, the TGI with NCI-H522 lung was found to be 0.499 µM; in the assay on SNB-19 CNS, 4.8 µM; in the assay on SK-MEL-28 melanoma, 5.37 µM; in the assay on A498 renal, 1.34 µM; with CAKI-1 renal it was 0.0947 µM; in the assay with MOLT-4 leukemia, 2.89 µM. Also, the total growth inhibition concentration (TGI) in the assay with M14 melanoma is 4.19 µM; in the assay with SF-295 CNS it was 0.671 µM; in the assay on CCRF-CEM leukemia it was above 100 µM; in the assay with SNB-75 CNS it was 3.13 µM.
With `CCOP(=O)(OCC)/C(C#N)=C/c1cccn1Cc1ccccc1`, the TGI in the assay on NCI-H522 lung is 86.8 µM; with SNB-19 CNS, above 100 µM; in the assay on SK-MEL-28 melanoma, 39.5 µM; in the assay with A498 renal, above 100 µM; in the assay with CAKI-1 renal, above 100 µM; with MOLT-4 leukemia, 75.5 µM. For the same molecule, the total growth inhibition concentration (TGI) in the assay with M14 melanoma is above 100 µM; with SF-295 CNS it was 97.6 µM; with CCRF-CEM leukemia, above 100 µM; in the assay with SNB-75 CNS, above 100 µM.
Turning to `NC1=NCC(CN2CCCC2)O1` (stereo not given), the TGI in the assay on NCI-H522 lung, in the assay on SNB-19 CNS, in the assay with SK-MEL-28 melanoma, in the assay with A498 renal, in the assay on CAKI-1 renal and in the assay on MOLT-4 leukemia was above 100 µM each time. For the same molecule, the TGI with M14 melanoma, with SF-295 CNS, in the assay on CCRF-CEM leukemia and in the assay on SNB-75 CNS was above 100 µM in each case.
As to `O=C(Nc1cccc(-n2cc(-c3ccncc3)c(-c3ccc(O)c(Cl)c3)n2)c1)c1cccc(C(F)(F)F)c1`, the GI50 – broadly, the concentration giving 50% growth inhibition – in the assay on NCI-H522 lung was 2.49 µM; in the assay with SNB-19 CNS it was 9.36 µM; in the assay with SK-MEL-28 melanoma it was 4.63 µM; with A498 renal, 3.44 µM; with CAKI-1 renal, 2.83 µM; in the assay with MOLT-4 leukemia, 2.96 µM. The GI50 in the assay with M14 melanoma is 2.72 µM; in the assay on SF-295 CNS, 2.98 µM; in the assay with CCRF-CEM leukemia, 1.88 µM; in the assay with SNB-75 CNS, 2.07 µM. Besides, the TGI in the assay with NCI-H522 lung, in the assay with SNB-19 CNS, with SK-MEL-28 melanoma, in the assay on A498 renal, in the assay on CAKI-1 renal and in the assay on MOLT-4 leukemia was above 100 µM throughout. Also, the TGI with M14 melanoma, in the assay with SF-295 CNS, with CCRF-CEM leukemia and in the assay with SNB-75 CNS was above 100 µM each time.
`O=C1CC(n2cccc2)c2c(Br)sc(Br)c21` (stereo not given): the TGI with NCI-H522 lung is 3.27 µM; in the assay with SNB-19 CNS, 28.1 µM; in the assay with SK-MEL-28 melanoma it was 41.2 µM; in the assay with A498 renal it was 56.5 µM; in the assay with CAKI-1 renal it was 19.8 µM; in the assay with MOLT-4 leukemia, 33.6 µM. For the same molecule, the TGI with M14 melanoma was 30.2 µM; in the assay with SF-295 CNS, 55.8 µM; with CCRF-CEM leukemia it was 26.8 µM; with SNB-75 CNS it was 35.1 µM.
Turning to `CC1CC/C(=C\c2ccc(Cl)cc2)c2nc(N)c(C#N)c(-c3ccc(Cl)cc3)c21` (stereo not given), the TGI was above 100 µM in the assay with NCI-H522 lung; 69.5 µM with SNB-19 CNS; above 100 µM with SK-MEL-28 melanoma; 72.4 µM in the assay with A498 renal; 45.5 µM in the assay with CAKI-1 renal; above 100 µM in the assay on MOLT-4 leukemia. For the same molecule, the TGI with M14 melanoma, in the assay with SF-295 CNS, with CCRF-CEM leukemia and with SNB-75 CNS was above 100 µM each time.
In the case of `CCOC(=O)C1CCCCN1CCc1c[nH]c2ccccc12` (stereo not given), the TGI with NCI-H522 lung, in the assay with SNB-19 CNS, in the assay on SK-MEL-28 melanoma, in the assay with A498 renal, with CAKI-1 renal and in the assay on MOLT-4 leukemia was above 100 µM throughout. Also, the TGI in the assay with M14 melanoma, with SF-295 CNS, in the assay on CCRF-CEM leukemia and in the assay on SNB-75 CNS was above 100 µM each time.
Consider `NC(=O)Cc1nc2c(=O)[nH]cnc2n1C1OC(CO)C(O)C1O` (stereo not given), for which the TGI with NCI-H522 lung, in the assay on SNB-19 CNS, in the assay with SK-MEL-28 melanoma, in the assay with A498 renal, in the assay with CAKI-1 renal and with MOLT-4 leukemia was above 100 µM throughout. Further, the TGI in the assay with M14 melanoma, with SF-295 CNS, in the assay on CCRF-CEM leukemia and with SNB-75 CNS was above 100 µM in each case.
Take `Cc1ccc(-c2n[nH]c(=O)n2/N=C\c2ccccc2)cc1`: the TGI in the assay on NCI-H522 lung, in the assay on SNB-19 CNS, with SK-MEL-28 melanoma, with A498 renal, with CAKI-1 renal and with MOLT-4 leukemia was above 100 µM in each case. Besides, the TGI in the assay on M14 melanoma is above 100 µM; with SF-295 CNS, 69 µM; in the assay with CCRF-CEM leukemia, above 100 µM; in the assay on SNB-75 CNS, 80.3 µM.
On to `O=c1cc(NCc2ccncc2)[nH]c(=O)[nH]1`, for which the TGI in the assay with NCI-H522 lung, with SNB-19 CNS, with SK-MEL-28 melanoma, in the assay with A498 renal, in the assay with CAKI-1 renal and in the assay on MOLT-4 leukemia was above 100 µM throughout. Further, the TGI in the assay with M14 melanoma, in the assay with SF-295 CNS, in the assay on CCRF-CEM leukemia and in the assay on SNB-75 CNS was above 100 µM each time.
For the molecule `COC1(OC)c2no[n+]([O-])c2C(OC)(OC)c2c1no[n+]2[O-]`, the TGI with NCI-H522 lung was 47.5 µM; in the assay with SNB-19 CNS, 59.5 µM; in the assay on SK-MEL-28 melanoma, 32.1 µM; in the assay with A498 renal it was 34.6 µM; with CAKI-1 renal, 92.9 µM; with MOLT-4 leukemia, above 100 µM. Also, the TGI with M14 melanoma was found to be 26.9 µM; in the assay on SF-295 CNS it was 80 µM; with CCRF-CEM leukemia, 60.4 µM; in the assay with SNB-75 CNS it was 83.3 µM.
In the case of `NCCOCC(N)C(=O)O` (stereo not given), the TGI in the assay on NCI-H522 lung, in the assay on SNB-19 CNS, in the assay on SK-MEL-28 melanoma, in the assay with A498 renal, with CAKI-1 renal and in the assay with MOLT-4 leukemia was above 100 µM throughout. For the same molecule, the TGI in the assay on M14 melanoma, in the assay with SF-295 CNS, with CCRF-CEM leukemia and in the assay on SNB-75 CNS was above 100 µM each time.
In the case of `NC(=O)CO/N=C1/C(c2c(O)[nH]c3ccccc23)=Nc2ccccc21`, the TGI in the assay on NCI-H522 lung, in the assay on SNB-19 CNS, in the assay with SK-MEL-28 melanoma, with A498 renal, in the assay with CAKI-1 renal and in the assay on MOLT-4 leukemia was above 100 µM throughout. Besides, the TGI in the assay with M14 melanoma, with SF-295 CNS, in the assay with CCRF-CEM leukemia and in the assay on SNB-75 CNS was above 100 µM in each case.
Regarding `Cc1cc2c(c(=O)n1C)SCC2`, the TGI in the assay on NCI-H522 lung, in the assay with SNB-19 CNS, in the assay with SK-MEL-28 melanoma, in the assay with A498 renal, in the assay on CAKI-1 renal and with MOLT-4 leukemia was above 100 µM throughout. The TGI in the assay with M14 melanoma, with SF-295 CNS, in the assay on CCRF-CEM leukemia and in the assay on SNB-75 CNS was above 100 µM each time.
Regarding `CC(C)(C)C1CC[C@H](O)[C@H]([C@H](O)CC2CC(=O)N(c3ccccc3)C(=O)C2)C1` (stereo not given in full), the TGI with NCI-H522 lung, in the assay with SNB-19 CNS, in the assay on SK-MEL-28 melanoma, in the assay with A498 renal, in the assay on CAKI-1 renal and with MOLT-4 leukemia was above 100 µM in each case. For the same molecule, the TGI in the assay on M14 melanoma, in the assay with SF-295 CNS, in the assay on CCRF-CEM leukemia and in the assay with SNB-75 CNS was above 100 µM throughout.

(Values after PubChem BioAssay (NCI).)
